Assay results as given in PubChem BioAssay (NCI).
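Grown in 96-well plates, cells were treated for 48 hours with each compound at five concentrations. Insufficient inhibition: endpoint recorded as highest concentration tested. At the GI50, growth is halved. At the TGI there is no net growth.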

Columns and labels:
Experiment in all cases: inhibition of tumour cell growth, NCI panel, 48 h
BT-549 breast = test system: BT-549 breast
IGROV1 ovarian = test system: IGROV1 ovarian
MDA-MB-468 breast = test system: MDA-MB-468 breast
NCI-H460 lung = test system: NCI-H460 lung
MDA-MB-231 breast = test system: MDA-MB-231 breast
SK-MEL-2 melanoma = test system: SK-MEL-2 melanoma
U251 CNS = test system: U251 CNS
UACC-257 melanoma = test system: UACC-257 melanoma
SN12C renal = test system: SN12C renal
A549 NSCLC = test system: A549 NSCLC
SF-295 CNS = test system: SF-295 CNS
SNB-19 CNS = test system: SNB-19 CNS
MALME-3M melanoma = test system: MALME-3M melanoma
SK-MEL-28 melanoma = test system: SK-MEL-28 melanoma
SK-MEL-5 melanoma = test system: SK-MEL-5 melanoma
EKVX NSCLC = test system: EKVX NSCLC
ACHN renal = test system: ACHN renal
CAKI-1 renal = test system: CAKI-1 renal
OVCAR-8 ovarian = test system: OVCAR-8 ovarian
HOP-62 NSCLC = test system: HOP-62 NSCLC
MCF7 breast = test system: MCF7 breast
MOLT-4 leukemia = test system: MOLT-4 leukemia
SK-OV-3 ovarian = test system: SK-OV-3 ovarian
OVCAR-4 ovarian = test system: OVCAR-4 ovarian
HT29 colon = test system: HT29 colon
M14 melanoma = test system: M14 melanoma
KM12 colon = test system: KM12 colon
786-0 renal = test system: 786-0 renal
CCRF-CEM leukemia = test system: CCRF-CEM leukemia
HS 578T breast = test system: HS 578T breast
SF-268 CNS = test system: SF-268 CNS
HCC-2998 colon = test system: HCC-2998 colon
NCI/ADR-RES ovarian = test system: NCI/ADR-RES ovarian
LOX IMVI melanoma = test system: LOX IMVI melanoma
PC-3 prostate = test system: PC-3 prostate
HCT-15 colon = test system: HCT-15 colon
K-562 leukemia = test system: K-562 leukemia
COLO 205 colon = test system: COLO 205 colon
HCT-116 colon = test system: HCT-116 colon
UACC-62 melanoma = test system: UACC-62 melanoma
OVCAR-5 ovarian = test system: OVCAR-5 ovarian
A498 renal = test system: A498 renal
HL-60(TB) leukemia = test system: HL-60(TB) leukemia
HOP-92 NSCLC = test system: HOP-92 NSCLC
T-47D breast = test system: T-47D breast
OVCAR-3 ovarian = test system: OVCAR-3 ovarian
NCI-H226 lung = test system: NCI-H226 lung
TK-10 renal = test system: TK-10 renal
NCI-H23 lung = test system: NCI-H23 lung
DU-145 prostate = test system: DU-145 prostate
SR leukemia = test system: SR leukemia
NCI-H522 lung = test system: NCI-H522 lung
SW-620 colon = test system: SW-620 colon
SF-539 CNS = test system: SF-539 CNS
UO-31 renal = test system: UO-31 renal
RPMI-8226 leukemia = test system: RPMI-8226 leukemia
SNB-75 CNS = test system: SNB-75 CNS
MDA-MB-435 = test system: MDA-MB-435

Cc1cc2nc3c4ccccc4n(CC4=NCCN4)c3nc2cc1C
GI50 (BT-549 breast): 6.52 µM
TGI (BT-549 breast): 22.7 µM
GI50 (IGROV1 ovarian): 1.99 µM
TGI (IGROV1 ovarian): 15.4 µM
GI50 (MDA-MB-468 breast): 2.06 µM
TGI (MDA-MB-468 breast): 7.09 µM
GI50 (NCI-H460 lung): 0.634 µM
TGI (NCI-H460 lung): 1.93 µM
GI50 (MDA-MB-231 breast): 2.01 µM
TGI (MDA-MB-231 breast): 5.72 µM
GI50 (SK-MEL-2 melanoma): 15.9 µM
TGI (SK-MEL-2 melanoma): 30.5 µM
GI50 (U251 CNS): 1.25 µM
TGI (U251 CNS): 4.21 µM
GI50 (UACC-257 melanoma): 10.6 µM
TGI (UACC-257 melanoma): 25.3 µM
GI50 (SN12C renal): 1.59 µM
TGI (SN12C renal): 12.2 µM
GI50 (A549 NSCLC): 1.28 µM
TGI (A549 NSCLC): 16.6 µM
GI50 (SF-295 CNS): 1.12 µM
TGI (SF-295 CNS): 10.7 µM
GI50 (SNB-19 CNS): 3.21 µM
TGI (SNB-19 CNS): 15.9 µM
GI50 (MALME-3M melanoma): 1.4 µM
TGI (MALME-3M melanoma): 2.85 µM
GI50 (SK-MEL-28 melanoma): 7.93 µM
TGI (SK-MEL-28 melanoma): 20.6 µM
GI50 (SK-MEL-5 melanoma): 6.62 µM
TGI (SK-MEL-5 melanoma): 19.2 µM
GI50 (EKVX NSCLC): 10.3 µM
TGI (EKVX NSCLC): 22.5 µM
GI50 (ACHN renal): 1.74 µM
TGI (ACHN renal): 5.3 µM
GI50 (CAKI-1 renal): 1.38 µM
TGI (CAKI-1 renal): 11.7 µM
GI50 (OVCAR-8 ovarian): 2.53 µM
TGI (OVCAR-8 ovarian): 19.3 µM
GI50 (HOP-62 NSCLC): 2.34 µM
TGI (HOP-62 NSCLC): 11.8 µM
GI50 (MCF7 breast): 0.747 µM
TGI (MCF7 breast): 12.5 µM
GI50 (MOLT-4 leukemia): 1.17 µM
TGI (MOLT-4 leukemia): 6.54 µM
GI50 (SK-OV-3 ovarian): 2.43 µM
TGI (SK-OV-3 ovarian): 9.95 µM
GI50 (OVCAR-4 ovarian): 5.76 µM
TGI (OVCAR-4 ovarian): 20.8 µM
GI50 (HT29 colon): 1.52 µM
TGI (HT29 colon): 3.6 µM
GI50 (M14 melanoma): 3.1 µM
TGI (M14 melanoma): 14.1 µM
GI50 (KM12 colon): 5.51 µM
TGI (KM12 colon): 22.6 µM
GI50 (786-0 renal): 3.48 µM
TGI (786-0 renal): 13.3 µM
GI50 (CCRF-CEM leukemia): 2.37 µM
TGI (CCRF-CEM leukemia): 42.2 µM
GI50 (HS 578T breast): 11.2 µM
TGI (HS 578T breast): 29.7 µM
GI50 (SF-268 CNS): 4.81 µM
TGI (SF-268 CNS): 24 µM
GI50 (HCC-2998 colon): 2.69 µM
TGI (HCC-2998 colon): 15.7 µM
GI50 (NCI/ADR-RES ovarian): 3.5 µM
TGI (NCI/ADR-RES ovarian): 17.8 µM
GI50 (LOX IMVI melanoma): 1.19 µM
TGI (LOX IMVI melanoma): 2.47 µM
GI50 (PC-3 prostate): 1.75 µM
TGI (PC-3 prostate): > 100 µM
GI50 (HCT-15 colon): 3.44 µM
TGI (HCT-15 colon): 15.5 µM
GI50 (K-562 leukemia): 1.78 µM
TGI (K-562 leukemia): > 100 µM
GI50 (COLO 205 colon): 3.11 µM
TGI (COLO 205 colon): 20.2 µM
GI50 (HCT-116 colon): 1.5 µM
TGI (HCT-116 colon): 6.19 µM
GI50 (UACC-62 melanoma): 1.91 µM
TGI (UACC-62 melanoma): 11.8 µM
GI50 (OVCAR-5 ovarian): 2.62 µM
TGI (OVCAR-5 ovarian): 10.6 µM
GI50 (A498 renal): 6.15 µM
TGI (A498 renal): 20.9 µM
GI50 (HL-60(TB) leukemia): 3.06 µM
TGI (HL-60(TB) leukemia): 14.4 µM
GI50 (HOP-92 NSCLC): 2.84 µM
TGI (HOP-92 NSCLC): 17.5 µM
GI50 (T-47D breast): 3.07 µM
TGI (T-47D breast): 15.5 µM
GI50 (OVCAR-3 ovarian): 5.89 µM
TGI (OVCAR-3 ovarian): 22.6 µM
GI50 (NCI-H226 lung): 1.44 µM
TGI (NCI-H226 lung): 5 µM
GI50 (TK-10 renal): 6.35 µM
TGI (TK-10 renal): 20.7 µM
GI50 (NCI-H23 lung): 2.64 µM
TGI (NCI-H23 lung): 13.1 µM
GI50 (DU-145 prostate): 3.08 µM
TGI (DU-145 prostate): 14.4 µM
GI50 (SR leukemia): 0.523 µM
TGI (SR leukemia): 9.37 µM
GI50 (NCI-H522 lung): 1.86 µM
TGI (NCI-H522 lung): 15.1 µM
GI50 (SW-620 colon): 0.997 µM
TGI (SW-620 colon): 11.9 µM
GI50 (SF-539 CNS): 1.59 µM
TGI (SF-539 CNS): 3.06 µM
GI50 (UO-31 renal): 0.605 µM
TGI (UO-31 renal): 6.49 µM
GI50 (RPMI-8226 leukemia): 2.55 µM
TGI (RPMI-8226 leukemia): 36 µM
GI50 (SNB-75 CNS): 1.49 µM
TGI (SNB-75 CNS): 10.7 µM
GI50 (MDA-MB-435): 3.67 µM
TGI (MDA-MB-435): 14.3 µM
